One compound from paper PMC12310023 (PLOS Neglected Tropical Diseases, 2025) can be followed below.

What is called fraction unbound is the share of the substance not bound to proteins or other matrix. The term inhibition denotes the share of the control response that was lost under treatment. What is called IC50 is the concentration that inhibits the measured activity by half. Low readings indicate greater potency in that assay, high ones weaker potency in that assay. The CLint scaled is the rate of metabolic loss divided by the concentration. Broadly, the half-life is the time needed for the level to fall by half in the phase considered. By microsomal CLint is commonly meant the rate of metabolic loss divided by the concentration. The hepatocyte CLint is the rate of metabolic loss divided by the concentration. Read a high hepatocyte CLint as rapid turnover.

Series [1] is described as follows: Plasma protein binding, equilibrium dialysis. As to conditions: dog. A general note: Equilibrium dialysis compares concentrations on both sides of a semipermeable membrane.
The test system of series [2] is NLuc-expressing C. parvum. Kind of series: NLuc C. parvum IFNγ-KO mouse infection model, oocyst shedding. It counts as in vivo.
The test system of the next series is CYP3A12. The series can be described thus: CYP Induction Assay in dog hepatocytes. The conditions noted are these: 30 and 100 μM, 48 h.
Another series concerns the target T1, A3 (Homo sapiens, UniProt P0DMS8).
T1 sequence (P0DMS8 1-318): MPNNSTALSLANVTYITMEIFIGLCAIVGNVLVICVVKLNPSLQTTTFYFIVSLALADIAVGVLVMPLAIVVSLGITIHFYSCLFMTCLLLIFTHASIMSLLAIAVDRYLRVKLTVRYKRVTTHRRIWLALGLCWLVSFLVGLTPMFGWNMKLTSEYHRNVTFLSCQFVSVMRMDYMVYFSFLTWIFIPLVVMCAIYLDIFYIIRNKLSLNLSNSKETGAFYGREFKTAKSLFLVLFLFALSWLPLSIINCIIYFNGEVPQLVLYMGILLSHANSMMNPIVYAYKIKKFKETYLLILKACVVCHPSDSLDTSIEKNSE
The series can be described thus: Cerep binding assay. On the set-up: Cerep (Eurofins, France). The conditions noted are these: agonist radioligand, mean, read-out: % inhibition of control specific binding.

The target in a further series is CYP2C9 (Homo sapiens, UniProt P11712). The series can be described thus: biochemical.
CYP2C9, sequence (P11712 whole entry): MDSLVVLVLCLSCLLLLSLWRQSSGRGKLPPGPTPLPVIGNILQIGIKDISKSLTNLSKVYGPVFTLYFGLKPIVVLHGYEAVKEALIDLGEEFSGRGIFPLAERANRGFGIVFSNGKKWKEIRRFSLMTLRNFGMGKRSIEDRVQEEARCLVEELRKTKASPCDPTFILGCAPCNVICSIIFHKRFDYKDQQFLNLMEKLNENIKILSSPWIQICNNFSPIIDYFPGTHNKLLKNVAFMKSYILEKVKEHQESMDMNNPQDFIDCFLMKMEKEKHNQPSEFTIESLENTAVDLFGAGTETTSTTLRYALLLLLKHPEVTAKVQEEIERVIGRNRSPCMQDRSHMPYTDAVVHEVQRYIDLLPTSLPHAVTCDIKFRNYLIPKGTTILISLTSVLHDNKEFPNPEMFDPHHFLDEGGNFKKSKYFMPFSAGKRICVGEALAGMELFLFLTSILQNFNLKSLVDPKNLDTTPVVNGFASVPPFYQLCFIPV
A short description of series [3]: Liver microsome stability. The conditions noted are these: mouse, pooled liver microsomes.
A short description of a further series: Hepatocyte stability. As to conditions: rat.
In another series the target is T2, CYP1A2 (Homo sapiens, UniProt P05177).
T2 sequence (P05177 1-516): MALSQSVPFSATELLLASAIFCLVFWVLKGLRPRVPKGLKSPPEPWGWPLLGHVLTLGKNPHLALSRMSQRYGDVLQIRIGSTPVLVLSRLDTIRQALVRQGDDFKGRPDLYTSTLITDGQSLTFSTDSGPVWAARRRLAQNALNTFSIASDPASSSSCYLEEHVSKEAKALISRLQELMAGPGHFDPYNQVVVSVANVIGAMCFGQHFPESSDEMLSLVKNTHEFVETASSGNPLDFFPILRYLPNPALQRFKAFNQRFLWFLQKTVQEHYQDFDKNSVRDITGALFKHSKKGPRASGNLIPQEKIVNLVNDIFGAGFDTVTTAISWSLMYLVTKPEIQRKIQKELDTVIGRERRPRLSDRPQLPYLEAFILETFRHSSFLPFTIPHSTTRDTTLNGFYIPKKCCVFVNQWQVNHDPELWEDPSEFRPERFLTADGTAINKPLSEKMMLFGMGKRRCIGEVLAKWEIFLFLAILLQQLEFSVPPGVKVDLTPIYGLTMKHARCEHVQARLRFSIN
Kind of series: in vitro. The conditions noted are these: recombinant CYP1A2 supersomes.

Series [4] is described as follows: Plasma concentrations in calf model. Format: in vivo. The conditions noted are these: after BKI-1708 5 mg/kg BID.
The next series has as its target T3, AT2 (Homo sapiens, UniProt P50052).
T3 construct: Cerep (Eurofins, France)
Kind of series: Cerep binding assay.

Another series concerns the target HsSrC (Homo sapiens, UniProt P12931). The series can be described thus: SrC enzyme inhibition. It counts as biochemical. The text has this: […]. […] All other methods are specified in S1 File.

T3 sequence (P50052 whole entry): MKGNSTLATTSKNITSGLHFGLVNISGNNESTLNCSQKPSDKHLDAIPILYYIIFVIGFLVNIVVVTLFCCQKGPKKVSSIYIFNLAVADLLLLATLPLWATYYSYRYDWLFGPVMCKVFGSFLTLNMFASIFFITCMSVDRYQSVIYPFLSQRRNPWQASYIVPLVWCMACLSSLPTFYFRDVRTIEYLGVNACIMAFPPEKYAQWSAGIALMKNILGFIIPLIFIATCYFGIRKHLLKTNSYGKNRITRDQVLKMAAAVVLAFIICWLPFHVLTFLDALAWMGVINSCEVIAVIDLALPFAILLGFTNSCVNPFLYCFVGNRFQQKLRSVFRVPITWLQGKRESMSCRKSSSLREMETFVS
HsSrC, sequence (P12931 whole entry): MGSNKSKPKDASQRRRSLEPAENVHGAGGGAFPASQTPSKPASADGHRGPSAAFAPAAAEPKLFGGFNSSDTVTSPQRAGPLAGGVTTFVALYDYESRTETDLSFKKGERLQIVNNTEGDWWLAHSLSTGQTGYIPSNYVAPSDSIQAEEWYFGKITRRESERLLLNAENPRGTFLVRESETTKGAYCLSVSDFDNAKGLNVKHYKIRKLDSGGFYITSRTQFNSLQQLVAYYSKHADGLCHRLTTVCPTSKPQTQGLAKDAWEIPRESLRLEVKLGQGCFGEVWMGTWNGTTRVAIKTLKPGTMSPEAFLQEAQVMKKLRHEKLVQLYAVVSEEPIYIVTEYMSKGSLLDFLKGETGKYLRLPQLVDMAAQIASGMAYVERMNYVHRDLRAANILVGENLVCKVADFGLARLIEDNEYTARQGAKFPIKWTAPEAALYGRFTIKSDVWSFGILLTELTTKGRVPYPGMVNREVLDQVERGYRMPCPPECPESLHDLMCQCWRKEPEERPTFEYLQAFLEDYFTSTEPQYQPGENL

`CC1(C)Cn2nc(-c3ccc4cc(OC5CC5)ccc4c3)c(C(N)=O)c2NC1O` (centres unmarked) [M2]: the free fraction (fraction unbound) in series [1] was 0.1. Further, the “day p.i. oocyst shedding reached LoD” value in [2] (M2 8 mg/kg x 3 days PO) was determined as 17 days. Further, the “day p.i. oocyst shedding below LoD” value in series [2] (M2 15 mg/kg x 3 days PO) and in series [2] (M2 30 mg/kg x 3 days PO) was ≤ 10 days in each case. In addition, in the series on CYP3A12, the “induction of CYP3A12” value is on record as “not found to be inducers”. Moreover, the inhibition at 10 µM at A3 was 72.6%; at AT2 (10 μM, agonist radioligand, mean, read-out: % inhibition of control specific binding) it was 50.7%. The IC50 against CYP2C9 is > 40 µM; at AT2, 4.6 µM; at HsSrC, > 10 µM. In addition, the CLint scaled in [3] is 75 mL/min/kg; in “Hepatocyte stability” (primary hepatocytes) it was 63.3 mL/min/kg; on CYP1A2, 2.78 mL/min/kg. The half-life in series [3] stood at 1.97 h; in “Hepatocyte stability” (primary hepatocytes), 1.75 h; at CYP1A2 it was 1 h. Further, the intrinsic clearance (microsomal CLint) in series [3] amounted to 23.6 µL/min/mg. For the same compound, the “LM:hepatocyte CLint_scaled ratio” value in the series “Hepatocyte stability” (liver microsomes and primary hepatocytes) is recorded as <0.7. In “Hepatocyte stability” (primary hepatocytes), this compound returned an intrinsic clearance (hepatocyte CLint) of 13.2 µL/min/1e6 cells. The “average peak concentration of M2” value in [4] came to 7.1 ± 4.4 µM.
